The values that follow come from patent US5106863A, “Substituted imidazole and pyridine derivatives” (Ortho Pharmaceutical Corporation, priority 1990, dated 1992).

Experiment [1] relates to stimulated parietal cells. Briefly: Isolated Parietal Cell Assay: inhibition of 14C-aminopyrine accumulation in stimulated parietal cells. The settings on record: 37° C. The experiment is classed as cell-based, rabbit. The protocol:
Isolated Parietal Cell Assay Using the procedures described in Batzri, S. et al., Biochemica et Biophysica Acta 508, 328 (1978), and Soll, H., Am. J. Physiol. 238, […] (1980), the example compounds were tested for their ability to inhibit ^14 C-aminopyrine accumulation in stimulated parietal cells. Parietal cells were isolated from the fundic mucosa of rabbit stomachs by a four-stage collagenese digestion process. The supernatant fraction from the last two stages of this process contain the individual parietal cells. This cell suspension was centrifuged and reconstituted in a modified Hank's buffer to contain 1-2×10^6 cells/ml. […] […] […] The flasks were incubated in a shaking water bath at 37° C. and gassed with 95% O2, 5% CO2 for 20 minutes. Three aliquots were then taken from each flask, and cell pellets were collected by centrifugation. The pellets were then solubilized with Protosol (NEN) and the radioactivity determined by liquid scintillation spectrometry.

Experiment [2] has as its target T1, H^+ /K^+ ATPase (Oryctolagus cuniculus, UniProt P27112).
T1 construct: microsomes prepared from a crude homogenate of rabbit gastric mucosa using differential centrifugation; from tissue; host or cells: rabbit gastric mucosa (microsomes, vesicular membranes)
Description: Isolated H^+ /K^+ ATPase Assay: inhibition of K+ stimulated response in vesicular membranes from rabbit gastric mucosa. The experiment is classed as biochemical. The settings on record: 10 min preincubation, 15 min at 37° C. As for the experimental part:
Isolated H^+ /K^+ ATPase Assay
Using the procedures described in Eibl, H. et al., Analytical Biochemistry 30, 51 (1969), Ganser, A. L. et al., Biochem. Biophys. Acta 307, 169 (1973), and Beil, W. et al., Br. J. Pharmac. 82, 651 (1984), the example compounds were tested for their ability to inhibit the H^+ /K^+ ATPase enzyme in the vesicular membranes from rabbit gastric mucosa. The H^+ /K^+ ATPase enzyme activity is present in microsomes prepared from a crude homogenate of rabbit gastric mucosa using differential centrifugation.
Assays were conducted in duplicate tubes in a 1 mL reaction volume consisting of 50 mM Tris buffer, 2mM MgCl2, ±10 mM KCl, 10 μl of example compound in dimethylsulfoxide and 20-30 μg of protein. The tubes were preincubated for 10 minutes in a 37° C. shaking water bath before the substrate, (Na2 ATP) was added. The mixture was then incubated for 15 minutes at 37° C. The reaction was stopped with 1 mL of 14% TCA and the tubes were centrifuged at 2000 rpm for 10 minutes.
The amount of inorganic phosphate (Pi) present in each sample was compared to a potassium phosphate standard curve.

Setting [3] is: Oryctolagus cuniculus, 20 min, DcAMP, read-out: Antisecretory Activity in Parietal Cell Assay, DcAMP (IC50).
Where [4] appears, read: Oryctolagus cuniculus, 20 min, HI, histamine-stimulated, read-out: Antisecretory Activity in Parietal Cell Assay, HI (IC50).

Counter-ions that a name gives are not always drawn. Like-named read-outs stand apart in the source and are kept apart here.

T1 sequence (P27112 2-1035 limits assumed): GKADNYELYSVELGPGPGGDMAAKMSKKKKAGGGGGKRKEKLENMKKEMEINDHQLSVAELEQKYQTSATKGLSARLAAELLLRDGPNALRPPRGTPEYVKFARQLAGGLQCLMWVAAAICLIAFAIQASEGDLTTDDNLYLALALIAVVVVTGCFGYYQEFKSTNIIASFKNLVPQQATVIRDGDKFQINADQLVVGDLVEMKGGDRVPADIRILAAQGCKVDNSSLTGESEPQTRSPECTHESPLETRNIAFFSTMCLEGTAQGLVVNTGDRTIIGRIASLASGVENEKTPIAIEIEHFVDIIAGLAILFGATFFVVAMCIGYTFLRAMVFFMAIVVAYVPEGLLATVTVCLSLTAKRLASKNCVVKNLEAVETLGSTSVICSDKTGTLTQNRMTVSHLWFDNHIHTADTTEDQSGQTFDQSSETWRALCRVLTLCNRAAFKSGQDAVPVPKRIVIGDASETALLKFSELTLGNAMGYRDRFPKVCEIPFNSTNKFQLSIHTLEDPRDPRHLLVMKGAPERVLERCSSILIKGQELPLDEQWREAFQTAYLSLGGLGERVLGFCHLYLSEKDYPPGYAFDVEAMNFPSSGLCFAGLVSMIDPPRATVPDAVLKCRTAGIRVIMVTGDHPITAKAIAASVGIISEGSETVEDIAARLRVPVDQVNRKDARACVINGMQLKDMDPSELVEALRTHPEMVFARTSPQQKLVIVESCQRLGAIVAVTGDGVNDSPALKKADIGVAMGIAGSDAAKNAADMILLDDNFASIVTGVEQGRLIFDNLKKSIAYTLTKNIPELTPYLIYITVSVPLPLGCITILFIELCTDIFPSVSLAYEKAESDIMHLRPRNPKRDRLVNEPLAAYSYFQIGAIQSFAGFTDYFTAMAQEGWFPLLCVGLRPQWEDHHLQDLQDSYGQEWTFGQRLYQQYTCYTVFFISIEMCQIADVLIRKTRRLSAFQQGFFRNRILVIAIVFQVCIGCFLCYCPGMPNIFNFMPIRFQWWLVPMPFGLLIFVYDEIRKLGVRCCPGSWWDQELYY
T1 sequence (P18597 whole entry partner): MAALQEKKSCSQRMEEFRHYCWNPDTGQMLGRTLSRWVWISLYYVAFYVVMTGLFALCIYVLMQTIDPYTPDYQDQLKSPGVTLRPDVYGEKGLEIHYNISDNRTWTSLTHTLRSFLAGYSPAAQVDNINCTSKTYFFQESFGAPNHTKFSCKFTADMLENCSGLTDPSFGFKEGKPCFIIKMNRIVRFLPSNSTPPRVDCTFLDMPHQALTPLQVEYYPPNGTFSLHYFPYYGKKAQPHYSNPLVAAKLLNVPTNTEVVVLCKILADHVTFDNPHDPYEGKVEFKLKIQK

With `CC(C)=CCC/C(C)=C/CSc1nc2cc(Cl)ccc2[nH]1` [Example 2, 5-Chloro-2-[(3,7-dimethyl-2,6(E)-octadienyl)-thio]-1H-1,3-benzimidazole], the values for the IC50 in experiment [1] (setting [3]), in experiment [1] (setting [4]) and in experiment [2] were 3500 nM, 2300 nM and 5000 nM, respectively.

Turning to `CC(C)=CCC/C(C)=C/CSCc1ccccn1` [Example 15, 2-[3,7-Dimethyl-2,6(E)octadienylthiomethyl]pyridine.1/10 Hydrate], the IC50 in experiment [1] (setting [3]) is 2900 nM; in experiment [1] (setting [4]) it was 2400 nM; in experiment [2], 9600 nM.

Regarding `CC(C)=CCC[C@H](C)CCSc1nccn1C` [Example 17, 3S-2-[(3,7-Dimethyl-6-octen-1-yl)thio]-1-methylimidazole], the IC50 was determined as 1100 nM in experiment [1] (setting [3]) and 1700 nM in experiment [1] (setting [4]).

As to `COc1c(C)cnc(Cn2c(SC/C=C(\C)CCC=C(C)C)nc3ccccc32)c1C` [Example 5, 1-(3,5-Dimethyl-4-methoxy-2-pyridylmethyl)-2-[(3,7-dimethyl-2,6(E)-octadienyl)thio]-1H-1,3-benzimidazole Monooxalate Hemihydrate], the IC50 in experiment [1] (setting [3]) turned out to be 19000 nM; in experiment [1] (setting [4]), 4000 nM; in experiment [2], 3200 nM.

Take `CC(C)=CCC[C@H](C)CCSc1nc2ccccc2[nH]1` [Example 7, 3S(+)-2-[(3,7-Dimethyl-6-octen-1-yl)thio]-1H-1,3-benzimidazole]: the IC50 in experiment [1] (setting [3]) and in experiment [1] (setting [4]) was 2200 nM throughout.

As for `COc1ccc2[nH]c(SC/C=C(\C)CCC=C(C)C)nc2c1` [Example 4, 2-[(3,7-Dimethyl-2,6(E)-octadienyl)thio]-5-methoxy-1H-1,3-benzimidazole Monooxalate], the IC50 in experiment [1] (setting [3]) came out at 2100 nM; in experiment [1] (setting [4]), 700 nM.

Take `CC(C)=CCCC(C)CC[S+]([O-])c1nc2ccccc2[nH]1` (single isomer, unassigned; (+)) [Example 8, (+)-2-[(3,7-Dimethyl-6-octen-1-yl)sulfinyl]-1H-1,3-benzimidazole Monooxalate]: the half-maximal inhibitory concentration (IC50) in experiment [1] (setting [3]) stood at 33300 nM; in experiment [1] (setting [4]), 40000 nM; in experiment [2], 72000 nM.

For `CSc1ccc(-c2nc3ccccc3n2C/C=C(\C)CCC=C(C)C)cc1` [Example 21, 1-(3,7-Dimethyl-2,6(E)-octadienyl)-2-(4-methylthiophenyl)-1H-1,3-benzimidazole Monooxalate.H2 O], the values for the IC50 in experiment [1] (setting [3]), in experiment [1] (setting [4]) and in experiment [2] were 3000 nM, 40000 nM and 860 nM, respectively.

Turning to `COc1ccc2ncn(C/C=C(\C)CCC=C(C)C)c2c1` [Example 18, 1-(3,7-Dimethyl-2,6(E)-octadienyl)-6-methoxy-1H-1,3-benzimidazole Monooxalate], the IC50 came out at 860 nM in experiment [1] (setting [3]), 800 nM in experiment [1] (setting [4]) and 28000 nM in experiment [2].

As for `CCCCCCCCSc1nc2ccccc2[nH]1` [Example 12, 2-Octylthio-1H-1,3-benzimidazole], the figures for the IC50 in experiment [1] (setting [3]) and in experiment [1] (setting [4]) were 1000 nM and 1900 nM, respectively.

For the compound `CC(C)=CCC/C(C)=C/Cn1c(CO)nc2ccccc21` [Example 19, 1-[3,7-Dimethyl-2,6(E)-octadienyl]-2-hydroxymethyl-1H-1,3-benzimidazole Hydrochloride.1/4H2 O], the values for the 50% inhibitory concentration (IC50) in experiment [1] (setting [3]), in experiment [1] (setting [4]) and in experiment [2] were 3300 nM, 2000 nM and 15000 nM, respectively.

As to `CC(C)=CCC/C(C)=C/CSc1nc2cc(C(F)(F)F)ccc2[nH]1` [Example 6, 5-Trifluoromethyl-2-[(3,7-dimethyl-2,6(E)-octadienyl)thio]-1H-1,3-benzimidazole], the figures for the IC50 in experiment [1] (setting [3]) and in experiment [1] (setting [4]) were 510 nM and 460 nM, respectively.

In the case of `CC(C)=CCC/C(C)=C\CSc1nc2ccccc2[nH]1` [Example 11, 2-[(3,7-Dimethyl-2,6(Z)-octadienyl)-thio]-1H-1,3-benzimidazole.1/4Hydrate], the IC50 in experiment [1] (setting [3]) was 3100 nM; in experiment [1] (setting [4]) it was 2800 nM.

On to `COc1c(C)cnc(Cn2c(SCC[C@@H](C)CCC=C(C)C)nc3ccccc32)c1C` [Example 9, 1-(3,5-Dimethyl-4-methoxy-2-pyridylmethyl)-2-[(3,7-dimethyl-6-octen-1-yl)thio]-1H-1,3-benzimidazole Monooxalate], for which the IC50 in experiment [1] (setting [3]) stood at 1250 nM; in experiment [1] (setting [4]), 2000 nM; in experiment [2], 3000 nM.

Take `CCCCCCCCSc1nc2cc(OC)ccc2[nH]1` [Example 13, 5-Methoxy-2-octylthio-1H-1,3-benzimidazole Hemioxalate Monohydrate]: the IC50 in experiment [1] (setting [4]) came to 1300 nM.

Regarding `CC(C)=CCC/C(C)=C/CSc1nc2ccccc2[nH]1` [Example 1, 2-[(3,7-Dimethyl-2,6(E)-octadienyl)-thio]-1H-1,3-benzimidazole], the figures for the IC50 in experiment [1] (setting [3]) and in experiment [1] (setting [4]) were 2150 nM and 1300 nM, respectively.

On to `CCCCCCCCSc1nc2cc(Cl)ccc2[nH]1` [Example 14, 5-Chloro-2-octylthio-1H-1,3-benzimidazole], for which, in experiment [1] (setting [4]), the IC50 is 2400 nM.

Regarding “5 (and 6)-Chloro-2-methyl-1-(3,7-dimethyl-2,6(E)-octadienyl)-1H-1,3-benzimidazoleMonohydrochloride.1/4H2 O [Example 20]”, the IC50 in experiment [1] (DcAMP, 20 minutes, read-out: Antisecretory Activity in Parietal Cell Assay, DcAMP (IC50)) stood at 1600 nM; in experiment [1] (HI, histamine-stimulated, 20 minutes, read-out: Antisecretory Activity in Parietal Cell Assay, HI (IC50)), 430 nM; in experiment [2] it was 10000 nM.

For `CC(C)=CCC/C(C)=C\CSc1nc2ccccc2n1C/C=C(/C)CCC=C(C)C` [Example 10, 1-(3,7-Dimethyl-2,6(Z)-octadienyl)-2-[(3,7-dimethyl-2,6(Z)-octadienyl)-thio]-1H-1,3-benzimidazole Monooxalate], the IC50 is 1100 nM in experiment [1] (setting [3]) and 1700 nM in experiment [1] (setting [4]).

For `CC(C)=CCC/C(C)=C/CSc1nc2cc(F)c(Cl)cc2[nH]1` [Example 3, 6-Chloro-5-fluoro-2-[(3,7-dimethyl-2,6(E)-octadienyl)thio]-1H-1,3-benzimidazole.1/4Hydrate], the IC50 in experiment [1] (setting [3]) amounted to 2300 nM; in experiment [1] (setting [4]), 3100 nM; in experiment [2], 5600 nM.

The IC50 is the concentration that gives 50% inhibition.
